# Values quoted from earlier work as cited in patent publication US7850723B1, “Method and apparatus for patient temperature control employing titration of therapy using EEG signals” (Innercool Therapies, Inc., priority 2005, dated 2010).
# Legend:
# clots [1] = details: clots treated with plasminogen (2 mg) and SK (100 IU) in 15 ml PBS; clot temperature raised from 24° C. to 37° C.
# clots [2] = details: clots treated with UK at 4° C. and 28° C.; heating to 28° C.
# [3] = in vivo
compound,measurement,setting,value
streptokinase [SK],fibrinolytic activity,clots [1],heating enhanced the fibrinolytic activity
urokinase [UK],fibrinolytic activity (conversion of plasminogen to plasmin),clots [2],complete conversion of all plasminogen to plasmin
CCOC(=O)C1(c2ccccc2)CCN(C)CC1 [Meperidine],decrease of shivering threshold relative to vasoconstriction threshold,[3],twice as much
